Assay results from paper PMC11855827, “High-Throughput Screening of Five Compound Libraries for Anthelmintic Activity and Toxicity Leads to the Discovery of Two Flavonoid Compounds” (International Journal of Molecular Sciences, 2025).

Tested on: C. elegans
Settings: Table S2, C. elegans SS assay, 110 μM, averages of 4 data points

SMILES | Percentage of motility inhibition 0 h | Percentage of motility inhibition 24 h
C=C(C(=O)O)[C@@H]1CC[C@@]2(C)CCCC(=C)[C@]2(O)C1 [5α-Hydroxycostic acid] | 13% | 18%
COc1ccc(-c2cc(=O)c3c(O)c(OC)c(OC)cc3o2)cc1OC [5‐Desmethylsinensetin] | 2% | 11%
O=C1Cc2cc(O)ccc2N1 [5‐Hydroxyoxindole] | 15% | 10%
COc1ccc2[nH]cc(CCO)c2c1 [5‐Methoxytryptophol] | 25% | 7%
COc1cc(C)c2c(=O)c(-c3ccccc3)coc2c1 [5‐Methyl‐7‐methoxyisoflavone] | 16% | 0%
COc1ccc(-c2cc(=O)c3c(O)c(OC)c(OC)c(OC)c3o2)cc1OC [5‐O‐Demethylnobiletin] | 26% | 29%
O=C(O)c1cnc(O)cn1 [5‐hydroxypyr azine‐2‐carboxylic acid] | 28% | 1%
COc1cc2c(=O)c(-c3ccc(O)cc3)coc2cc1O[C@@H]1O[C@H](COC(C)=O)[C@@H](O)[C@H](O)[C@H]1O [6''‐O‐Acetylglycitin] | 4% | 5%
C=C[C@@H]1C2=CCOC(=O)C2=CO[C@H]1O[C@@H]1O[C@H](CO[C@@H]2O[C@H](CO)[C@@H](O)[C@H](O)[C@H]2O)[C@@H](O)[C@H](O)[C@H]1O [6'-O-beta-D-Glucosylgentiopicroside] | 34% | 15%
CCN1C[C@]2(C)CC[C@H](OC)C34C5C[C@@H]6CC[C@@](O)(C5C(=O)O6)C(C13)[C@@H](OC(=O)c1ccccc1)[C@@H]42 [6‐Benzoylheteratisine] | 16% | 23%
COc1ccc(-c2cc(=O)c3c(OC)cc(OC)c(OC)c3o2)cc1 [6‐Demethoxytangeretin] | 31% | 8%
O=c1cc(-c2ccc(O)c(O)c2)oc2cc(O[C@@H]3O[C@H](CO)[C@@H](O)[C@H](O)[C@H]3O)c(O)c(O)c12 [6‐Hydroxyluteolin 7‐glucoside] | 0% | 10%
Cc1ccc(C(N)=O)cn1 [6‐Methylni cotinamid e] | 0% | 0%
COc1cc(/C=C/C(=O)OC[C@H]2O[C@@H](O[C@@H]3[C@@H](O)[C@H](O)[C@@H](CO)O[C@H]3c3c(OC)cc4oc(-c5ccc(O)cc5)cc(=O)c4c3O)[C@H](O)[C@@H](O)[C@@H]2O)ccc1O [6‴‐Feruloylspinosin] | 9% | 13%
COc1cc(O)c2c(=O)cc(-c3ccc(OC)c(OC)c3)oc2c1 [7,3',4'‐Tri‐O‐methylluteolin] | 13% | 21%
O=c1cc(-c2ccc(O)cc2)oc2cc(O)ccc12 [7,4'‐Dihydroxyflavone] | 5% | 0%
COc1ccc(-c2cc(=O)c3c(O)cc(OC)cc3o2)cc1 [7,4'‐Di‐O‐methylapigenin] | 0% | 9%
CC(=O)O[C@@]12CO[C@@H]1C[C@@H](O)[C@@]1(C)C(=O)[C@H](O)C3=C(C)[C@@H](OC(=O)[C@H](O)[C@@H](NC(=O)c4ccccc4)c4ccccc4)C[C@@](O)([C@@H](OC(=O)c4ccccc4)[C@H]21)C3(C)C [7-Epi 10-desacetyl paclitaxel] | 0% | 26%
CC(C)CCC[C@@H](C)[C@H]1CC[C@H]2[C@@H]3C(=O)C=C4C[C@@H](O)CC[C@]4(C)[C@H]3CC[C@]12C [7-Ketocholesterol] | 1% | 27%
CO[C@H]1c2cc(C(C)C)c(O)c(O)c2[C@@]23CCCC(C)(C)[C@@H]2[C@@H]1OC3=O [7-Methoxyrosmanol] | 12% | 18%
CC(=O)O[C@H]1C(=O)[C@@]2(C)[C@H]([C@H](OC(=O)c3ccccc3)[C@]3(O)C[C@H](OC(=O)[C@H](O)[C@@H](NC(=O)c4ccccc4)c4ccccc4)C(C)=C1C3(C)C)[C@]1(OC(C)=O)CO[C@@H]1C[C@@H]2O [7-epi-Taxol] | 13% | 11%

SMILES | Percentage of motility inhibition 0 h | Percentage of motility inhibition 24 h
C=C1[C@H](O)C[C@H]2[C@@H](/C=C(\C)C(=O)[C@@]3(O)C[C@H](C)[C@H](O)[C@@H]3[C@H]1O)C2(C)C [7beta-Hydroxylathyrol] | 6% | 14%
CC(=O)OCC1=C(C(=O)O)N2C(=O)[C@@H](N)[C@H]2SC1 [7‐Aminocephalosporanic acid] | 3% | 0%
CCc1c2c(nc3ccccc13)-c1cc3c(c(=O)n1C2)COC(=O)[C@]3(O)CC [7‐Ethylcamptothecin] | 11% | 22%
O=c1ccoc2cc(O)ccc12 [7‐Hydroxy‐4H‐chromen‐4‐one] | 0% | 8%
Cn1c[n+]([C@@H]2O[C@H](CO)[C@@H](O)[C@H]2O)c2nc(N)[nH]c(=O)c21 [7‐Methylguanosine] | 0% | 0%
C[C@@H]1CC[C@@H]2C(C(=O)O)=CO[C@@H](O[C@@H]3O[C@H](CO)[C@@H](O)[C@H](O)[C@H]3O)[C@H]12 [8-Epideoxyloganic acid] | 2% | 17%
C[C@H]1[C@H]2[C@H](O[C@@H]3O[C@H](CO)[C@@H](O)[C@H](O)[C@H]3O)OC=C(C(=O)O)[C@H]2C[C@@H]1O [8-Epiloganic acid] | 4% | 15%
CC(=O)O[C@@]1(C)C[C@@H](O)[C@]2(O)C=CO[C@@H](O[C@@H]3O[C@H](CO)[C@@H](O)[C@H](O)[C@H]3O)[C@@H]21 [8-O-Acetylharpagide] | 10% | 29%
O=c1c2c3c(ccc2cc2n1CCc1cc4c(cc1-2)OCO4)OCO3 [8‐Oxocoptisine] | 2% | 30%
CC(=O)OC1CC2(O)C(OC(=O)c3ccccc3)C3C4(OC(C)=O)COC4CC(O)C3(C)C(O)C(OC(C)=O)C(=C1C)C2(C)C (stereo not drawn) [9-Dihydro-13-acetylbaccatin III] | 0% | 8%
CC[C@@]1(O)C(=O)OCc2c1cc1n(c2=O)Cc2cc3c(OC)cccc3nc2-1 [9‐Methoxycamptothecin] | 22% | 0%
COc1ccc2c3ccnc4ccc(=O)n(c2c1)c43 [9‐Methoxycanthin‐6‐one] | 0% | 22%
CC(=O)O[C@@]12CO[C@@H]1C[C@H](O[C@@H]1OC[C@@H](O)[C@H](O)[C@H]1O)[C@@]1(C)C(=O)[C@H](O)C3=C(C)[C@@H](OC(=O)[C@H](O)[C@@H](NC(=O)c4ccccc4)c4ccccc4)C[C@@](O)([C@@H](OC(=O)c4ccccc4)[C@H]21)C3(C)C [10-Deacetyl-7-xylosyl paclitaxel] | 0% | 14%
CC(=O)O[C@@]12CO[C@@H]1C[C@H](O)[C@@]1(C)C(=O)[C@H](O)C3=C(C)[C@@H](O)C[C@@](O)([C@@H](OC(=O)c4ccccc4)[C@H]21)C3(C)C [10-Deacetylbaccatin III] | 4% | 5%
CC(=O)O[C@@]12CO[C@@H]1C[C@H](O)[C@@]1(C)C(=O)[C@H](O)C3=C(C)[C@@H](OC(=O)[C@H](O)[C@@H](NC(=O)c4ccccc4)c4ccccc4)C[C@@](O)([C@@H](OC(=O)c4ccccc4)[C@H]21)C3(C)C [10-Deacetyltaxol] | 17% | 0%
C=CCCCCCCCCC(=O)O [10-Undecenoic acid] | 0% | 6%
CC[C@@]1(O)C(=O)OCc2c1cc1n(c2=O)Cc2cc3cc(OC)ccc3nc2-1 [10‐Methoxycamptothecin] | 0% | 0%
C=CCCCCCCCCC(=O)[O-].C=CCCCCCCCCC(=O)[O-].[Zn+2] [10‐Undecenoic acid (zinc salt)] | 43% | 35%
C[C@H](CC[C@@H](O[C@@H]1O[C@H](CO[C@@H]2O[C@H](CO)[C@@H](O)[C@H](O)[C@H]2O)[C@@H](O)[C@H](O)[C@H]1O[C@@H]1O[C@H](CO)[C@@H](O)[C@H](O)[C@H]1O)C(C)(C)O)[C@H]1CC[C@@]2(C)[C@@H]3CC=C4[C@@H](CC[C@H](O[C@@H]5O[C@H](CO[C@@H]6O[C@H](CO)[C@@H](O)[C@H](O)[C@H]6O)[C@@H](O)[C@H](O)[C@H]5O)C4(C)C)[C@]3(C)CC[C@]12C [11-Deoxymogroside V] | 0% | 10%
C[C@H]1[C@H](C)CC[C@]2(C)CC[C@]3(C)C(=CC(=O)[C@@H]4[C@@]5(C)CC[C@@H](O)[C@](C)(C(=O)O)[C@@H]5CC[C@]43C)[C@H]12 [11-Keto-beta-boswellic acid] | 2% | 0%
C[C@H](CC[C@@H](O[C@@H]1O[C@H](CO)[C@@H](O)[C@H](O)[C@H]1O[C@H]1O[C@@H](CO)[C@H](O)[C@@H](O)[C@@H]1O)C(C)(C)O)C1CC[C@@]2(C)C3CC=C4C(CC[C@H](O)C4(C)C)[C@]3(C)C(=O)C[C@]12C (stereo partly drawn) [11-Oxomogroside IIa] | 0% | 0%
